In patent US20090233845A1, “Methods and compositions for non-covalently enhanced receptor binding” (priority 2008, published 2009):

Test system: NIH/3T3 cells
Assay: Mitogenic assay on FGF-2-responsive cells (heparin control test, CellTiter AQueous One, OD 490 nm)
Format: cell-based
Protocol: We developed a mitogenic assay on cells responsive to FGF-2. The assay is run in the presence of a submaximal concentration of FGF-2 (10 ng/mL). […] At 72 h of incubation in the presence of 10 ng/mL of FGF-2, the addition of 10 μg/mL of heparin increased mitogenic activity by 58%.
Organic compounds of the invention may be assayed for their effect on FGF-2 stimulation of growth using this assay. […] For example, a “hit” can be defined as an increase in activity of >50%, in the presence of 10 ng/mL FGF-2 (with no added heparin).
The details of the assay are as follows.
1. Trypsinize cells. Remove a small aliquot of cell suspension for cell count and viability.
4. Transfer 80 μL of cell suspension to the appropriate wells of three 96-well tissue culture-treated plates.
5. Incubate plates at 37° C./5% CO2 for 18 hr.
Add 80 μL/well DMEM/0.1% BCS/1% Pen-Strep (0.1% BCS media), and incubate cells for 24 hr at 37° C./5% CO2.
A mass of 20 mg of heparin was dissolved in 2.0 mL of 0.1% BCS media for a final concentration of 10 mg/mL.
Preparation of 10× Heparin Solution: The 10 mg/mL heparin solution was diluted to 100 μg/mL by adding 50 μL of the 10 mg/mL solution to 4,950 μL of 0.1% BCS media.
A 1:10 intermediate dilution was prepared by adding 10 μL of 100 μg/mL FGF-2 stock to 90 μL of 1×PBS/0.5% BSA, for a final concentration of 10 μg/mL.
Preparation of 10×FGF-2: The 1:10 intermediate was further diluted by adding 50 μL to 4,950 μL of 0.1% BCS media, for a final concentration of 100 ng/mL. The 100 ng/mL FGF-2 solution was diluted by adding 500 μL to 4,500 μL of 0.1% BCS media, for a final concentration of 10 ng/mL.
6. 5× Heparin/FGF-2 Dilutions: Mix equal volumes of 10×FGF-2 (Steps 3 and 4) and 10× heparin stocks (Step 5) to create the 5× Treatment Intermediates as shown in Tables 3 and 4.
Add 20 μL of CellTiter AQueous One Solution to each of the treated wells.
Incubate for 1 hr at 37° C./5% CO2.

[1] = heparin 0.001 μg/mL, 1 ng/mL FGF-2, 24 hr
[2] = heparin 0.001 μg/mL, 1 ng/mL FGF-2, 48 hr
[3] = heparin 0.001 μg/mL, 1 ng/mL FGF-2, 72 hr
[4] = heparin 0.001 μg/mL, 10 ng/mL FGF-2, 24 hr
[5] = heparin 0.001 μg/mL, 10 ng/mL FGF-2, 48 hr
[6] = heparin 0.001 μg/mL, 10 ng/mL FGF-2, 72 hr
[7] = heparin 0.01 μg/mL, 1 ng/mL FGF-2, 24 hr
[8] = heparin 0.01 μg/mL, 1 ng/mL FGF-2, 48 hr
[9] = heparin 0.01 μg/mL, 1 ng/mL FGF-2, 72 hr
[10] = heparin 0.01 μg/mL, 10 ng/mL FGF-2, 24 hr
[11] = heparin 0.01 μg/mL, 10 ng/mL FGF-2, 48 hr
[12] = heparin 0.01 μg/mL, 10 ng/mL FGF-2, 72 hr
[13] = heparin 0.1 μg/mL, 1 ng/mL FGF-2, 24 hr
[14] = heparin 0.1 μg/mL, 1 ng/mL FGF-2, 48 hr
[15] = heparin 0.1 μg/mL, 1 ng/mL FGF-2, 72 hr
[16] = heparin 0.1 μg/mL, 10 ng/mL FGF-2, 24 hr
[17] = heparin 0.1 μg/mL, 10 ng/mL FGF-2, 48 hr
[18] = heparin 0.1 μg/mL, 10 ng/mL FGF-2, 72 hr
[19] = heparin 1 μg/mL, 1 ng/mL FGF-2, 24 hr
[20] = heparin 1 μg/mL, 1 ng/mL FGF-2, 48 hr
[21] = heparin 1 μg/mL, 1 ng/mL FGF-2, 72 hr
[22] = heparin 1 μg/mL, 10 ng/mL FGF-2, 24 hr
[23] = heparin 1 μg/mL, 10 ng/mL FGF-2, 48 hr
[24] = heparin 1 μg/mL, 10 ng/mL FGF-2, 72 hr
[25] = heparin 10 μg/mL, 1 ng/mL FGF-2, 24 hr
[26] = heparin 10 μg/mL, 1 ng/mL FGF-2, 48 hr
[27] = heparin 10 μg/mL, 1 ng/mL FGF-2, 72 hr
[28] = heparin 10 μg/mL, 10 ng/mL FGF-2, 24 hr
[29] = heparin 10 μg/mL, 10 ng/mL FGF-2, 48 hr
[30] = heparin 10 μg/mL, 10 ng/mL FGF-2, 72 hr

Substance: FGF-2: basic fibroblast growth factor (bFGF, FGF-2), receptor-binding ligand
- Mean OD490 (1 ng/mL FGF-2, 0 μg/mL heparin, 24 hr): 0.465
- Mean OD490 (1 ng/mL FGF-2, 0 μg/mL heparin, 48 hr): 0.197
- Mean OD490 (1 ng/mL FGF-2, 0 μg/mL heparin, 72 hr): 0.199
- Mean OD490 (10 ng/mL FGF-2, 0 μg/mL heparin, 24 hr): 0.898
- Mean OD490 (10 ng/mL FGF-2, 0 μg/mL heparin, 48 hr): 0.661
- Mean OD490 (10 ng/mL FGF-2, 0 μg/mL heparin, 72 hr): 0.381
- Mean OD490 (assay control, 10 ng/mL FGF-2, 24 hr): 0.884
- Mean OD490 (assay control, 10 ng/mL FGF-2, 48 hr): 0.737
- Mean OD490 (assay control, 10 ng/mL FGF-2, 72 hr): 0.401

Substance: Heparin
- Mean OD490 [1]: 0.477
- Percent Difference from 0 μg/mL Heparin Mean OD490 [1]: 2.6%
- Mean OD490 [2]: 0.222
- Percent Difference from 0 μg/mL Heparin Mean OD490 [2]: 12.7%
- Mean OD490 [3]: 0.208
- Percent Difference from 0 μg/mL Heparin Mean OD490 [3]: 4.5%
- Mean OD490 [4]: 0.912
- Percent Difference from 0 μg/mL Heparin OD490 [4]: 1.6%
- Mean OD490 [5]: 0.641
- Percent Difference from 0 μg/mL Heparin OD490 [5]: −3.0%
- Mean OD490 [6]: 0.416
- Percent Difference from 0 μg/mL Heparin OD490 [6]: 9.2%
- Mean OD490 [7]: 0.430
- Percent Difference from 0 μg/mL Heparin Mean OD490 [7]: −7.5%
- Mean OD490 [8]: 0.200
- Percent Difference from 0 μg/mL Heparin Mean OD490 [8]: 1.5%
- Mean OD490 [9]: 0.199
- Percent Difference from 0 μg/mL Heparin Mean OD490 [9]: 0.0%
- Mean OD490 [10]: 0.859
- Percent Difference from 0 μg/mL Heparin OD490 [10]: −4.3%
- Mean OD490 [11]: 0.641
- Percent Difference from 0 μg/mL Heparin OD490 [11]: −3.0%
- Mean OD490 [12]: 0.417
- Percent Difference from 0 μg/mL Heparin OD490 [12]: 9.4%
- Mean OD490 [13]: 0.419
- Percent Difference from 0 μg/mL Heparin Mean OD490 [13]: −9.9%
- Mean OD490 [14]: 0.226
- Percent Difference from 0 μg/mL Heparin Mean OD490 [14]: 14.7%
- Mean OD490 [15]: 0.199
- Percent Difference from 0 μg/mL Heparin Mean OD490 [15]: 0.0%
- Mean OD490 [16]: 0.863
- Percent Difference from 0 μg/mL Heparin OD490 [16]: −3.9%
- Mean OD490 [17]: 0.830
- Percent Difference from 0 μg/mL Heparin OD490 [17]: 25.6%
- Mean OD490 [18]: 0.459
- Percent Difference from 0 μg/mL Heparin OD490 [18]: 20.5%
- Mean OD490 [19]: 0.398
- Percent Difference from 0 μg/mL Heparin Mean OD490 [19]: −14.4%
- Mean OD490 [20]: 0.202
- Percent Difference from 0 μg/mL Heparin Mean OD490 [20]: 2.5%
- Mean OD490 [21]: 0.212
- Percent Difference from 0 μg/mL Heparin Mean OD490 [21]: 6.5%
- Mean OD490 [22]: 0.938
- Percent Difference from 0 μg/mL Heparin OD490 [22]: 4.5%
- Mean OD490 [23]: 0.978
- Percent Difference from 0 μg/mL Heparin OD490 [23]: 48.0%
- Mean OD490 [24]: 0.583
- Percent Difference from 0 μg/mL Heparin OD490 [24]: 53.0%
- Mean OD490 [25]: 0.433
- Percent Difference from 0 μg/mL Heparin Mean OD490 [25]: −6.9%
- Mean OD490 [26]: 0.196
- Percent Difference from 0 μg/mL Heparin Mean OD490 [26]: −0.5%
- Mean OD490 [27]: 0.188
- Percent Difference from 0 μg/mL Heparin Mean OD490 [27]: −5.5%
- Mean OD490 [28]: 1.071
- Percent Difference from 0 μg/mL Heparin OD490 [28]: 19.3%
- Mean OD490 [29]: 0.992
- Percent Difference from 0 μg/mL Heparin OD490 [29]: 50.1%
- Mean OD490 [30]: 0.602
- Percent Difference from 0 μg/mL Heparin OD490 (increase in mitogenic activity) [30]: 58.0%
- Percent Difference from 0 μg/mL Heparin OD490 (increase in mitogenic activity) (heparin 10 μg/mL, 10 ng/mL FGF-2, 72 hr, listed as heparin): 58%
- FGF-2 activity in the presence of heparin (increasing concentrations of heparin, FIG. 18): increased with increasing concentrations of heparin
